Target: CXCR4 (Homo sapiens, UniProt P61073)
Test: BRET analysis of β-arrestin2 interaction with CXCR4 in HEK 293 cells
Format: cell-based
Conditions: 10 μM DFPQ, FIG. 2C
Procedure: FIGS. 2A-2C: […] Cells were read every 2 min post agonist addition. […]® ADRB2 cells (DiscoveRx) were maintained with the AssayCompleteTM Cell Culture kit (DiscoveRx catalog #92-[…]). […] HEK 293 cells stably overexpressing β2AR included 250 μg/ml G418. Cells were incubated at 37° C. in a humidified incubator with 5% CO2. […] Cells were read every three minutes for 18 minutes on a PolarStar Optima plate reader (BMG) to establish peak signal. […] Plates were incubated in the dark at room temperature for one hour. Luminescence was determined at room temperature (23-25° C.) on a PolarStar Optima plate reader (BMG). […] Screening data analysis and IC50 determination. […] Relative assay bias was calculated from the ratio of normalized cAMP and arrestin recruitment responses. […] BRET was measured using a Tecan Infinite F500 microplate reader. […] Bound [35 S]GTPγS was collected by rapid filtration on GF/B filters, washed 4 times with 4 ml of cold GTPγS wash buffer and analyzed by liquid scintillation counting. […] Immunoprecipitated proteins were separated by SDS-PAGE and analyzed by western blot using a β2AR C-terminal tail or phospho-specific antibody. […] Band intensity was measured by densitometry using ImageJ. […] Absorbance was then measured on a plate reader at 405 nm. […] Lungs were monitored for appropriate inflation. […] Images were analyzed post hoc using the ImageJ software. […] Cell-free area was quantitated using ImageJ. […]

Chain of CXCR4 (P61073 whole entry, species assumed): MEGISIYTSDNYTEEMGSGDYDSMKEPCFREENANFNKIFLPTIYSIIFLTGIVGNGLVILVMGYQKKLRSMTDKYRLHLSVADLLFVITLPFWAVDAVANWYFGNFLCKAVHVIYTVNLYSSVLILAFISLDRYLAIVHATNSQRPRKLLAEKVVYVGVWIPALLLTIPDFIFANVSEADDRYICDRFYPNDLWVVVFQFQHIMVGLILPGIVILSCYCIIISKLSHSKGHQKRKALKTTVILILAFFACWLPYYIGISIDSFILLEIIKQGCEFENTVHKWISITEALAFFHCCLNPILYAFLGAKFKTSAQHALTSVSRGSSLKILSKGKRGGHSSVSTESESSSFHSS

β-arrestin2 interaction with CXCR4: no effect
Compound: Fc1ccc(Nc2nc(NC3CCCCC3)c3ccccc3n2)cc1F [DFPQ, N^4-cyclohexyl-N^2-(3,4-difluorophenyl)quinazoline-2,4-diamine]

Source: patent publication US20240166626A1, “Compounds and Methods for Preventing, Treating, or Ameliorating Airway Disease” (THOMAS JEFFERSON UNIVERSITY, priority 2021, published 2024)
